Results published in paper PMC12454493, “Insight on novel sulfamoylphenyl pyrazole derivatives as anticancer carbonic anhydrase inhibitors” (Molecular Diversity, 2024).

Columns and labels:
Format in all cases: cell-based
[1] = system: KM12; assay: NCI-60 one-dose SRB screen (Colon Cancer); details: Homo sapiens, single dose 10 µM, 48 h, read-out: Growth inhibition percent (GI %)
Method: (§1) The National Cancer Institute (NCI) Developmental Therapeutic Program (www.dtp.nci.nih.gov) selected the 20 novel synthesized compounds 4a-e, 5a-e, 6a-c, 9a-e, 10 and 11 to test for their anticancer activity at a single dose of 10 µM using SRB assay. […] Supplementary Data S3; Table S1 presents the detailed screening results of the most promising compounds. The preliminary screening’s detailed results for the remaining compounds are elucidated in the (Supplementary Data S3; Table S2).
(§2) The guidelines of the Drug Evaluation Branch’s protocol at the NCI in Bethesda served as the basis for the in vitro anticancer screening assays. at one dose 10 µM against a panel of 60 cancer cell lines. The human tumor cell lines used belonged to nine panels: leukemia, melanoma, lung, colon, CNS, ovarian, renal, prostate and breast cancers using the sulforhodamine B (SRB) assay in a 48 h drug exposure protocol.

[2] = system: SW-620; assay: NCI-60 one-dose SRB screen (Colon Cancer); details: Homo sapiens, single dose 10 µM, 48 h, read-out: Growth inhibition percent (GI %)
Method: as §1, §2

[3] = system: HCC-2998; assay: NCI-60 one-dose SRB screen (Colon Cancer); details: Homo sapiens, single dose 10 µM, 48 h, read-out: Growth inhibition percent (GI %)
Method: as §1, §2

[4] = system: HCT-116; assay: NCI-60 one-dose SRB screen (Colon Cancer); details: Homo sapiens, single dose 10 µM, 48 h, read-out: Growth inhibition percent (GI %)
Method: as §1, §2

[5] = system: HT29; assay: NCI-60 one-dose SRB screen (Colon Cancer); details: Homo sapiens, HT-29, single dose 10 µM, 48 h, read-out: Growth inhibition percent (GI %)
Method: as §1, §2

[6] = system: HCT-15; assay: NCI-60 one-dose SRB screen (Colon Cancer); details: Homo sapiens, single dose 10 µM, 48 h, read-out: Growth inhibition percent (GI %)
Method: as §1, §2

[7] = system: COLO 205; assay: NCI-60 one-dose SRB screen (Colon Cancer); details: Homo sapiens, single dose 10 µM, 48 h, read-out: Growth inhibition percent (GI %)
Method: as §1, §2

[8] = system: HS 578T; assay: NCI-60 one-dose SRB screen (Breast Cancer); details: Homo sapiens, single dose 10 µM, 48 h, read-out: Growth inhibition percent (GI %)
Method: as §1, §2

[9] = system: MCF-7; assay: NCI-60 one-dose SRB screen (Breast Cancer); details: Homo sapiens, MCF7, single dose 10 µM, 48 h, read-out: Growth inhibition percent (GI %)
Method: as §1, §2

[10] = system: BT-549; assay: NCI-60 one-dose SRB screen (Breast Cancer); details: Homo sapiens, single dose 10 µM, 48 h, read-out: Growth inhibition percent (GI %)
Method: as §1, §2

[11] = system: MDA-MB-231/ATCC; assay: NCI-60 one-dose SRB screen (Breast Cancer); details: Homo sapiens, single dose 10 µM, 48 h, read-out: Growth inhibition percent (GI %)
Method: as §1, §2

[12] = system: MDA-MB-468; assay: NCI-60 one-dose SRB screen (Breast Cancer); details: Homo sapiens, single dose 10 µM, 48 h, read-out: Growth inhibition percent (GI %)
Method: as §1, §2

[13] = system: T-47D; assay: NCI-60 one-dose SRB screen (Breast Cancer); details: Homo sapiens, T47D, single dose 10 µM, 48 h, read-out: Growth inhibition percent (GI %)
Method: as §1, §2

[14] = system: RPMI-8226; assay: NCI-60 one-dose SRB screen (Leukemia); details: Homo sapiens, single dose 10 µM, 48 h, read-out: Growth inhibition percent (GI %)
Method: as §1, §2

[15] = system: HL-60(TB); assay: NCI-60 one-dose SRB screen (Leukemia); details: Homo sapiens, single dose 10 µM, 48 h, read-out: Growth inhibition percent (GI %)
Method: as §1, §2

[16] = system: K-562; assay: NCI-60 one-dose SRB screen (Leukemia); details: Homo sapiens, K562, single dose 10 µM, 48 h, read-out: Growth inhibition percent (GI %)
Method: as §1, §2

[17] = system: MOLT-4; assay: NCI-60 one-dose SRB screen (Leukemia); details: Homo sapiens, single dose 10 µM, 48 h, read-out: Growth inhibition percent (GI %)
Method: as §1, §2

[18] = system: CCRF-CEM; assay: NCI-60 one-dose SRB screen (Leukemia); details: Homo sapiens, single dose 10 µM, 48 h, read-out: Growth inhibition percent (GI %)
Method: as §1, §2

[19] = system: SR; assay: NCI-60 one-dose SRB screen (Leukemia); details: Homo sapiens, single dose 10 µM, 48 h, read-out: Growth inhibition percent (GI %)
Method: as §1, §2

[20] = system: SF-539; assay: NCI-60 one-dose SRB screen (CNS Cancer); details: Homo sapiens, single dose 10 µM, 48 h, read-out: Growth inhibition percent (GI %)
Method: as §1, §2

[21] = system: SF-295; assay: NCI-60 one-dose SRB screen (CNS Cancer); details: Homo sapiens, single dose 10 µM, 48 h, read-out: Growth inhibition percent (GI %)
Method: as §1, §2

[22] = system: U251; assay: NCI-60 one-dose SRB screen (CNS Cancer); details: Homo sapiens, U-251, single dose 10 µM, 48 h, read-out: Growth inhibition percent (GI %)
Method: as §1, §2

[23] = system: SNB-75; assay: NCI-60 one-dose SRB screen (CNS Cancer); details: Homo sapiens, single dose 10 µM, 48 h, read-out: Growth inhibition percent (GI %)
Method: as §1, §2

[24] = system: SNB-19; assay: NCI-60 one-dose SRB screen (CNS Cancer); details: Homo sapiens, single dose 10 µM, 48 h, read-out: Growth inhibition percent (GI %)
Method: as §1, §2

[25] = system: SF-268; assay: NCI-60 one-dose SRB screen (CNS Cancer); details: Homo sapiens, single dose 10 µM, 48 h, read-out: Growth inhibition percent (GI %)
Method: as §1, §2

[26] = system: CAKI-1; assay: NCI-60 one-dose SRB screen (Renal Cancer); details: Homo sapiens, single dose 10 µM, 48 h, read-out: Growth inhibition percent (GI %)
Method: as §1, §2

[27] = system: ACHN; assay: NCI-60 one-dose SRB screen (Renal Cancer); details: Homo sapiens, single dose 10 µM, 48 h, read-out: Growth inhibition percent (GI %)
Method: as §1, §2

[28] = system: A498; assay: NCI-60 one-dose SRB screen (Renal Cancer); details: Homo sapiens, single dose 10 µM, 48 h, read-out: Growth inhibition percent (GI %)
Method: as §1, §2

[29] = system: TK-10; assay: NCI-60 one-dose SRB screen (Renal Cancer); details: Homo sapiens, single dose 10 µM, 48 h, read-out: Growth inhibition percent (GI %)
Method: as §1, §2

[30] = system: UO-31; assay: NCI-60 one-dose SRB screen (Renal Cancer); details: Homo sapiens, single dose 10 µM, 48 h, read-out: Growth inhibition percent (GI %)
Method: as §1, §2

Question: With Cc1ccc(-c2nn(-c3ccc(S(N)(=O)=O)cc3)cc2C(=O)OCC(=O)Nc2ccc(S(N)(=O)=O)cc2)cc1 [Compound 4b, 2-Oxo-2-[(4-sulfamoylphenyl)amino] ethyl 1-(4-sulfamoylphenyl)-3-(p-tolyl)-1H-pyrazole-4-carboxylate] as the molecule, how does the inhibition at 10 µM [1] read?
Answer: < 5%

Question: What about the inhibition at 10 µM [2] of the same molecule?
Answer: < 5%

Question: And the inhibition at 10 µM [3]?
Answer: < 5%

Question: And the inhibition at 10 µM [4]?
Answer: < 5%

Question: What about the inhibition at 10 µM [5] of the same molecule?
Answer: 11.6%

Question: And the inhibition at 10 µM [6]?
Answer: < 5%

Question: And the inhibition at 10 µM [7]?
Answer: < 5%

Question: And the inhibition at 10 µM [8]?
Answer: 6.42%

Question: And the inhibition at 10 µM [9]?
Answer: < 5%

Question: And the inhibition at 10 µM [10]?
Answer: 6.7%

Question: What about the inhibition at 10 µM [11] of the same molecule?
Answer: 6.64%

Question: What about the inhibition at 10 µM [12] of the same molecule?
Answer: 18.6%

Question: And the inhibition at 10 µM [13]?
Answer: 17.5%

Question: And the inhibition at 10 µM [14]?
Answer: < 5%

Question: What about the inhibition at 10 µM [15] of the same molecule?
Answer: 5.09%

Question: What about the inhibition at 10 µM [16] of the same molecule?
Answer: 7.16%

Question: And the inhibition at 10 µM [17]?
Answer: < 5%

Question: And the inhibition at 10 µM [18]?
Answer: < 5%

Question: What about the inhibition at 10 µM [19] of the same molecule?
Answer: 30.2%

Question: And the inhibition at 10 µM [20]?
Answer: 20.3%

Question: And the inhibition at 10 µM [21]?
Answer: < 5%

Question: And the inhibition at 10 µM [22]?
Answer: < 5%

Question: And the inhibition at 10 µM [23]?
Answer: < 5%

Question: What about the inhibition at 10 µM [24] of the same molecule?
Answer: < 5%

Question: What about the inhibition at 10 µM [25] of the same molecule?
Answer: 10.3%

Question: And the inhibition at 10 µM [26]?
Answer: 15.2%

Question: And the inhibition at 10 µM [27]?
Answer: < 5%

Question: And the inhibition at 10 µM [28]?
Answer: < 5%

Question: And the inhibition at 10 µM [29]?
Answer: < 5%

Question: And the inhibition at 10 µM [30]?
Answer: 14.5%
